ChEMBL document CHEMBL5528031, “Synthesis and antitumor activity of cyclopentane-fused anthraquinone derivatives” (Eur J Med Chem, 2024)
≈ marks a conversion by molar mass, not a printed value. Calls of active or inactive are those of the source. The rule behind the calls is not given here.

Experiments:
CAPAN-1 = assay: Antiproliferative activity against human CAPAN-1 cells assessed as inhibition of cell growth incubated for 72 hrs by MTT assay; format: functional, cell-based; settings: CAPAN-1, 72 h
HCT-116 = assay: Antiproliferative activity against human HCT-116 cells assessed as inhibition of cell growth incubated for 72 hrs by MTT assay; format: functional, cell-based; settings: HCT-116, 72 h
LN-229 = assay: Antiproliferative activity against human LN-229 cells assessed as inhibition of cell growth incubated for 72 hrs by MTT assay; format: functional, cell-based; settings: LN-229, 72 h
NCI-H1975 = assay: Antiproliferative activity against human NCI-H1975 cells assessed as inhibition of cell growth incubated for 72 hrs by MTT assay; format: functional, cell-based; settings: NCI-H1975, 72 h
Z-138 = assay: Antiproliferative activity against human Z138 cells assessed as inhibition of cell growth incubated for 72 hrs by MTT assay; format: functional, cell-based; settings: Z-138, 72 h
[1] = Antiproliferative activity against human DND41 cells assessed as inhibition of cell growth incubated for 72 hrs by MTT assay; format: functional, cell-based; settings: DND41, 72 h
HL-60 = assay: Antiproliferative activity against human HL-60 cells assessed as inhibition of cell growth incubated for 72 hrs by MTT assay; format: functional, cell-based; settings: HL-60, 72 h
K562 = assay: Antiproliferative activity against human K562 cells assessed as inhibition of cell growth incubated for 72 hrs by MTT assay; format: functional, cell-based; settings: K562, 72 h
[2] = Antiproliferative activity against multidrug resistant human K562/4 cells expressing P-gp assessed as inhibition of cell growth incubated for 72 hrs by MTT assay; format: functional, cell-based; settings: K562/4, 72 h
[3] = Cytotoxicity against hFB-hTERT6 cells assessed as inhibition of cell growth incubated for 72 hrs by MTT assay; format: toxicity, cell-based; settings: human
Calf thymus DNA [4] = assay: Binding affinity to calf thymus DNA assessed as binding constant at 10 uM by fluorescence spectroscopy analysis; format: nucleic-acid assay; settings: Bos taurus
Calf thymus DNA [5] = assay: Binding affinity to calf thymus DNA assessed as dissociation constant at 10 uM by fluorescence spectroscopy analysis; format: nucleic-acid assay, Bos taurus
DNA = assay: Binding affinity to pBR322 plasmid DNA (unknown origin) assessed as DNA intercalation by measuring reduction in electrophoretic shift at 5 to 20 uM incubated for 30 mins by EtBr staining based agarose gel electrophoresis; format: nucleic-acid assay; settings: dose 5-20 µM
[6] = molecular target: T1, DNA topoisomerase 1 (Homo sapiens) (UniProt P11387); assay: Inhibition of topoisomerase 1 (unknown origin) assessed as reduction in unwinding of supercoiled pBR322 plasmid DNA by measuring reduction in electrophoretic mobility at 20 uM incubated for 30 mins by EtBr staining based agarose gel electrophoresis
T1 sequence (whole entry): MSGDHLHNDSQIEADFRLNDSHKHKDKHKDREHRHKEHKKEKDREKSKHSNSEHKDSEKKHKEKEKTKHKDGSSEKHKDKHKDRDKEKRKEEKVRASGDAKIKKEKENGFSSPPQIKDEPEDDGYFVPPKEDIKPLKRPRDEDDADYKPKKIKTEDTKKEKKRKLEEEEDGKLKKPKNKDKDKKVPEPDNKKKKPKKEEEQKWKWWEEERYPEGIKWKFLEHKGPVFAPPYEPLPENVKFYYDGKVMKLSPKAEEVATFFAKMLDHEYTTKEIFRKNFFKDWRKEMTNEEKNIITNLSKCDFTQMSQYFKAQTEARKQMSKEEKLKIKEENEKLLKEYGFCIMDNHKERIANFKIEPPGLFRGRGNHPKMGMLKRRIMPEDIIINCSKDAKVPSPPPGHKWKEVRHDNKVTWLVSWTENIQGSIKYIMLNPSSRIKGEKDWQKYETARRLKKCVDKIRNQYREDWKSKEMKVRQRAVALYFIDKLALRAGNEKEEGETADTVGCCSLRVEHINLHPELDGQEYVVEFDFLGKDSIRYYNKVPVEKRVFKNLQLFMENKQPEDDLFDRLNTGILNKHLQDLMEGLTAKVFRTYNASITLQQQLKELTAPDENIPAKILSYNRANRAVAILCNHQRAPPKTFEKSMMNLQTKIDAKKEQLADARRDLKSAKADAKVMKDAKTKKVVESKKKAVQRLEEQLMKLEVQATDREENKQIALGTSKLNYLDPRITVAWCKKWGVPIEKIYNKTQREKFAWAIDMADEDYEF

[7] = Solubility of compound in deionized water at pH 6; format: physicochemical
[8] = Drug uptake in human HCT-116 cells assessed as increase in intracellular accumulation at 2 uM measured after 24 hrs by Hoechst 33342 staining based fluorescence confocal microscopic analysis; format: ADME, cell-based; settings: hct-116, 24 h
[9] = Drug uptake in hFB-hTERT6 cells; format: ADME, cell-based; settings: human
[10] = Drug uptake in human HCT-116 cells assessed as increase in intracellular accumulation at 2 uM measured after 24 hrs by flow cytometry analysis; format: ADME, cell-based; settings: hct-116, 24 h

Structure (SMILES) | IC50 (CAPAN-1) [nM] | IC50 (HCT-116) [nM] | IC50 (LN-229) [nM] | IC50 (NCI-H1975) [nM] | IC50 (Z-138) [nM] | IC50 [1] [nM] | IC50 (HL-60) [nM] | IC50 (K562) [nM] | IC50 [2] [nM] | IC50 at 72 h [3] [nM] | Kb (Calf thymus DNA [4]) | Kd (Calf thymus DNA [5]) [nM] | Activity (DNA) | inhibition [6] | solubility [7] [mg/mL] | Drug uptake [8] | Drug uptake [9] | Drug uptake [10]
O=C1c2ccccc2C(=O)c2c(O)c3c(c(O)c21)CC(C(=O)NC1CNC1)C3 | 1500 | 1400 | 2900 | 2700 | 2800 | 3100 | 2700 | 2700 | 33000 | 4300 | – | – | – | – | – | – | – | –
NCCN(CCN)C(=O)C1Cc2c(O)c3c(c(O)c2C1)C(=O)c1ccccc1C3=O | 1600 | 1300 | 1600 | 1800 | 2500 | 2400 | 2300 | 1900 | 18000 | 2300 | – | – | – | – | – | – | – | –
O=C1c2ccccc2C(=O)c2c(O)c3c(c(O)c21)CC(C(=O)NC1CN2CCC1CC2)C3 (stereo unspecified) | 1800 | 1500 | 1900 | 6200 | 2700 | 2200 | 2100 | 1600 | 4100 | 2400 | – | – | – | – | – | – | – | –
NCCNC(=O)C1Cc2c(O)c3c(c(O)c2C1)C(=O)c1ccccc1C3=O | 1600 | 1400 | 2600 | 1800 | 2100 | 3100 | 3700 | 2100 | 6000 | 4000 | – | – | – | – | – | – | – | –
N[C@@H]1CN(C(=O)C2Cc3c(O)c4c(c(O)c3C2)C(=O)c2ccccc2C4=O)C[C@H]1N | 1700 | 2000 | 3900 | 3800 | 2600 | 2300 | 2800 | 2800 | 35000 | 23000 | 0.31 10^6/M | 3200 | – | – | – | – | – | –
Cc1oc2c(O)c3c(c(O)c2c1C(=O)N1CC[C@H](N)C1)C(=O)c1ccccc1C3=O | – | – | – | – | – | – | – | – | – | – | – | – | inactive | Active | – | – | – | –
O=C1c2ccccc2C(=O)c2c(O)c3c(c(O)c21)CC(C(=O)N1CCNCC1)C3 | 1400 | 1300 | 5000 | 8800 | 2100 | 1700 | 1200 | 1300 | 2200 | 4000 | – | – | – | – | 46 (≈ 117 mM) | – | – | –
NCCCNC(=O)C1Cc2c(O)c3c(c(O)c2C1)C(=O)c1ccccc1C3=O | 3600 | 2100 | 3900 | 3300 | > 50000 | 43000 | 45000 | 3700 | 7800 | 6500 | – | – | – | – | – | – | – | –
O=C1c2ccccc2C(=O)c2c(O)c3c(c(O)c21)CC(C(=O)NCCOCCO)C3 | > 50000 | > 50000 | > 50000 | > 50000 | > 50000 | > 50000 | > 50000 | > 50000 | > 50000 | > 50000 | 0.011 10^6/M | 90000 | inactive | – | – | Not Active | Not Active | Not Active
O=C1c2ccccc2C(=O)c2c(O)c3c(c(O)c21)CC(C(=O)NC1CCCNC1)C3 (stereo unspecified) | 1000 | 3200 | 3500 | 4600 | 2200 | 1500 | 1900 | 1700 | 3200 | 4200 | – | – | – | – | – | – | – | –
